Results from patent US9181249B2, “Substituted pyrido[3,4-b]pyrazines as GPR6 modulators” (Takeda Pharmaceutical Company Limited, priority 2013, dated 2015).
Marks after values point to notes of the source that are not given here.

Tests used:
[1] = system: haloperidol-induced catalepsy; experiment: Example B Haloperidol-Induced Catalepsy In Vivo Rodent Parkinson's Disease Model; conditions: Rat
From the text: Haloperidol-Induced Catalepsy In Vivo Rodent Parkinson's Disease Model
The motor symptoms of Parkinson's disease include akinesia, bradykinesia, rigidity, tremor and postural abnormalities and are associated with the loss of nigral dopaminergic cells and a decline in striatal dopamine levels. Administration of haloperidol to rodents leads to a transient parkinsonian-like state that is reversed by the administration of L-Dopa (Duty, S.; Jenner, P. Br. J. Pharmacol. (2011), 164, 1357-1391) and other drugs that have been clinically validated for the treatment of Parkinson's disease. Haloperidol antagonizes dopamine D2 and, to a lesser extent, D1 receptors in medium spiny neurons that comprise the indirect and direct pathways of the motor circuit respectively. The resultant block of striatal dopamine transmission results in abnormal downstream firing within the basal ganglia circuits that is manifest as symptoms of muscle rigidity and catalepsy. Catalepsy has been postulated to reflect the clinical features of Parkinson's disease, whereby patients experience an inability of to initiate movements.
Male Sprague-Dawley rats (Charles River, Calco, Italy) weighing 175-200 g are used. Alternatively, male C57Bl6 mice weighing 25-35 g were used. The cataleptic state was induced by the subcutaneous administration of the dopamine receptor antagonist haloperidol (0.3 mg/kg, sc), 90 min before testing the animals on the vertical grid test. For this test, the rats or mice were placed on the wire mesh cover of a 25 cm×43 cm plexiglass cage placed at an angle of about 70 degrees with the bench table. The subject was placed on the grid with all four legs abducted and extended (“frog posture”). The use of such an unnatural posture is essential for the specificity of this test for catalepsy. The time span from placement of the paws until the first complete removal of one paw (descent latency) was measured maximally for 120 sec for rats. For mice, the front paws of a mouse was placed on a horizontal metal bar raised 2″ above a Plexiglas platform and time was recorded for up to 30 seconds per trial. The test ended when the animal's front paws returned to the platform or after 30 seconds. The test was repeated three times and the average of the three trials was reported as the intensity index of catalepsy.
Catalepsy was measured 30 min, 120 min, and/or 240 min after dosing the subjects a 0.3 mg/kg i.p. dose of haloperidol along with the GPR6 modulator test compound. Test compound plasma and brain levels were determined by collected tissue samples at the end of the experiment, which was either at the 120 or 240 min time point. A representative number of compounds of the invention were administered in a dose range from 0.1 to 100 mg/kg i.p, sc or po in conjunction with haloperidol. The A2a antagonist KW6002 (istradefylline) was dosed at 0.6 mg/kg i.p. as a positive control.

[2] = system: 6-hydroxydopamine lesioned rats (motor activity); experiment: Example C 6-Hydroxydopamine Lesion Model In Vivo Rodent Parkinson's Disease Model; conditions: adult female rats, bilateral striatal 6-hydroxydopamine lesion, counts for 3 hours after dosing
Procedure: 6-Hydroxydopamine Lesion Model In Vivo Rodent Parkinson's Disease Model
Adult female rats (10) were first assessed for pre-surgery motor activity using an automated activity tracking system that records beam breaks across the testing arena floor. Beam breaks were summed over the first 3 hours after the animals were placed into the arena and recorded as activity counts. To selectively damage dopaminergic nerve terminals in the striatum, 20 μg of the 6-hydroxydopamine was injected directly into the striatum bilaterally (i.e., on both sides of the brain). After 4 weeks of recovery, the rats were again tested for motor activity, and a significant reduction in activity counts was observed. Vehicle and the compound of Example 47 (0.5% methylcellulose) was orally dosed at 0.1, 1.0, or 10 mg/kg in a cross-over study design (5-10 day wash out period), and after dosing activity counts were measured for 3 hours. At the end of the study period, when each animal had received each treatment once, the data were analyzed. The activity counts (standard error of the mean) for the group pre-surgery and post-surgery and for treated and vehicle control were determined and are provide in Table 3 below: […]

In the case of `CC(=O)N1CCc2nc(N3CCC(Oc4ccc(F)cc4F)CC3)c(NC(C)C)nc2C1` [Example 47, 1-(2-(4-(2,4-difluorophenoxyl)piperidin-1-yl)-3-(isopropylamino)-7,8-dihydropyrido[3,4-b]pyrazin-6(5H)-yl)ethanone], the “% reversal 30 min” value ([1]; 0.1 mpk i.p.) was −5.7%, the “% reversal 120 min” value ([1]; 0.1 mpk i.p.) was 27.3% and the “% reversal 30 min” value ([1]; 1 mpk i.p.) was 39.1%. For the same compound, the “% reversal 120 min” value ([1]; 1 mpk i.p.) was 57.9* %, the “% reversal 30 min” value ([1]; 10 mpk i.p.) was 83.4* % and the “% reversal 120 min” value ([1]; 10 mpk i.p.) was 76.5* %. The “% reversal 30 min” value ([1]; 30 mpk i.p.) was 75.7* %, the “% reversal 120 min” value ([1]; 30 mpk i.p.) was 82.1* % and the “activity counts, Mean” value ([2]; orally dosed 0.1 mg/kg) was 11422*. The “activity counts, Mean” value ([2]; orally dosed 1.0 mg/kg) was 15334* and the “activity counts, Mean” value ([2]; orally dosed 10 mg/kg) was 19368*.
